Several values for one entry are separate records, joined by “and”; a condition that tells them apart may be missing. Equal values may be shown once.
Experiments:
Conditions in all cases: in vivo
yellow nutsedge [1] = tested on: yellow nutsedge; design: species or system Cyperus esculentus
yellow nutsedge [2] = tested on: yellow nutsedge; design: species or system Cyperus esculentus; remark: listed apart in the source
[3] = tested on: three grassy weeds (wild oat, watergrass, foxtail); design: species or system Avena fatua, Echinochloa crusgalli, Setaria viridis
[4] = tested on: three broadleaf weeds (morning glory, mustard, velvetleaf); design: species or system Ipomoea purpurea, Brassica kaber, Abutilon theophrasti
[5] = tested on: three grassy weeds (wild oat, watergrass, foxtail); design: species or system Avena fatua, Echinochloa crusgalli, Setaria viridis; remark: listed apart in the source
[6] = tested on: three broadleaf weeds (morning glory, mustard, velvetleaf); design: species or system Ipomoea purpurea, Brassica kaber, Abutilon theophrasti; remark: listed apart in the source

SMILES	% Control, Post-emergence, NS (yellow nutsedge [1])	% Control, Pre-emergence, NS (yellow nutsedge [2]) [%]	% Control, Pre-emergence, GR avg. [3] [%]	% Control, Pre-emergence, BL avg. [4] [%]	% Control, Post-emergence, GR avg. [5]	% Control, Post-emergence, BL avg. [6]
CCCSP(=O)(N(CCC)CCC)N(C)c1c(F)c(F)cc(F)c1F (stereo not drawn) [Compound 53]	0%	0	0	10	75% and 43%	100%
CCCSP(=O)(N(CCC)CCC)N(CC)c1ccccc1 (stereo not drawn) [Compound 26]	0%	0	7	33	20% and 10%	50%
CCCN(CCC)P(=O)(SC(C)(C)C)N(CCC)CCC [Compound 3]	5% and 0%	0	0	100	80% and 70%	80% and 100%
CCCCN(CCCC)P(=O)(SCCC)N(C)c1ccc(Cl)cc1Cl (stereo not drawn) [Compound 23]	0%	0	0	0	20% and 13%	50% and 43%
CCCSP(=O)(N(CCC)CCC)N(C)c1ccc(Br)cc1C (stereo not drawn) [Compound 39]	80%	0	0	0	67%	93%
CCCSP(=O)(N(CCC)CCC)N(C)c1ccc(OC)cc1 (stereo not drawn) [Compound 36]	0%	0	0	0	10%	100%
CCCSP(=O)(N(CCC)CCC)N(C)c1ccccc1C (stereo not drawn) [Compound 14]	5% and 0%	0	30	33	60% and 73%	60% and 67%
CCCSP(=O)(N(CCC)CCC)N(CCC)c1ccc(C(C)C)cc1 (stereo not drawn) [Compound 59]	0%	0	0	0	10% and 6%	50% and 55%
CCCSP(=O)(N(CCC)CCC)N(C)c1cc(F)c(F)cc1F (stereo not drawn) [Compound 48]	0%	0	0	0	80% and 40%	90% and 80%
CCCSP(=O)(N(CCC)CCC)N(C)c1ccc(Cl)cc1C (stereo not drawn) [Compound 62]	0%	0	0	0	30% and 33%	75% and 76%
CCCSP(=O)(N(CCC)CCC)N(CCOC)CCOC (stereo not drawn) [Compound 46]	0%	0	0	0	30% and 47%	60% and 73%
CCCSP(=O)(N(CCC)CCC)N(C)c1ccc(Cl)c(Cl)c1 (stereo not drawn) [Compound 20]	5% and 0%	0	0	0	20% and 13%	50% and 67%
CCCSP(=O)(N(CCC)CCC)N(C)c1cccc(Cl)c1Cl (stereo not drawn) [Compound 35]	0%	0	0	0	20% and 33%	20% and 33%
CCCCCN(CCCCC)P(=O)(SCCC)N(C)c1ccccc1C (stereo not drawn) [Compound 15]	5% and 0%	0	0	0	50% and 47%	80% and 60%
CCCSP(=O)(N(CCC)CCC)N(C)c1ccc(Cl)cc1Cl (stereo not drawn) [Compound 22]	10% and 0%	0	0	0	50% and 53%	60%
CCCSP(=O)(N(CC)CC(C)C)N(CC)CC(C)C [Compound 49]	0%	0	0	0	80% and 47%	100%
CCCSP(=O)(N(CCC)CCC)N(C)c1ccc(Cl)cc1 (stereo not drawn) [Compound 16]	0%	0	0	0	33% and 47%	43% and 73%
CCCCN(CCCC)P(=O)(SCCC)N(C)c1ccc(OC)cc1 (stereo not drawn) [Compound 11]	10% and 0%	9	0	0	30% and 50%	60% and 70%
CCCN(CCC)P(=O)(Sc1ccc(Cl)cc1)N(CCC)CCC [Compound 6]	0%	0	0	0	70% and 53%	80% and 93%
CCCSP(=O)(N(CCC)CCC)N(C)c1ccc(Br)cc1Br (stereo not drawn) [Compound 37]	0%	0	0	0	20% and 10%	80% and 83%
CCCSP(=O)(N(CCC)CCC)N(C)c1cccnc1 (stereo not drawn) [Compound 40]	0%	0	0	0	10%	70%
CCCSP(=O)(N(CCC)CCC)N(CCC)c1ccccc1 (stereo not drawn) [Compound 25]	0%	0	0	33	50% and 67%	50% and 67%
CCCSP(=O)(N(CCC)CCC)N(C)c1ccc(Cl)cc1Cl (stereo not drawn) [Compound 38]	0%	0	0	0	40%	100%
CCCSP(=O)(N(CCC)CCC)N(C)c1ccc(F)c(F)c1 (stereo not drawn) [Compound 30]	0%	0	0	0	5% and 0%	80% and 97%
CCCSP(=O)(N(CCC)CCC)N(C)c1ccc(OC)c(OC)c1 (stereo not drawn) [Compound 42]	0%	0	0	0	20% and 23%	50% and 83%
CCCCN(CC(C)C)P(=O)(SCCC)N(CCCC)CC(C)C [Compound 50]	0%	0	0	0	90% and 77%	85% and 70%
CCCN(CCC)P(=O)(Sc1ccccc1C)N(CCC)CCC [Compound 5]	0%	0	0	0	40% and 27%	40% and 33%
CCCSP(=O)(N(CCC)CCC)N(C)c1cccc([N+](=O)[O-])c1 (stereo not drawn) [Compound 44]	0%	0	0	0	10%	53%
CCCSP(=O)(N(CCC)CCC)N(CCC)c1ccccc1C(C)C (stereo not drawn) [Compound 57]	0%	0	0	0	20% and 16%	70% and 60%
CCCN(CCC)P(=O)(Sc1ccccc1)N(CCC)CCC [Compound 63]	0%	0	0	3	60% and 43%	80% and 91%

— patent US5189169A (priority 1991, dated 1993)
